Measurements from article PMC7005530, “A selective androgen receptor modulator SARM‐2f activates androgen receptor, increases lean body mass, and suppresses blood lipid levels in cynomolgus monkeys” (Pharmacology Research & Perspectives, 2020).
Like-named read-outs stand apart in the source and are kept apart here.

How the values were obtained:
[1] = target: T1, rat AR (Rattus norvegicus, UniProt P15207); assay: AR reporter assay (MMTV-luc) in COS7 cells expressing rat AR; type: cell-based
T1 construct: expressed in transfected cells; host or cells: COS7
T1 sequence (P15207 1-902): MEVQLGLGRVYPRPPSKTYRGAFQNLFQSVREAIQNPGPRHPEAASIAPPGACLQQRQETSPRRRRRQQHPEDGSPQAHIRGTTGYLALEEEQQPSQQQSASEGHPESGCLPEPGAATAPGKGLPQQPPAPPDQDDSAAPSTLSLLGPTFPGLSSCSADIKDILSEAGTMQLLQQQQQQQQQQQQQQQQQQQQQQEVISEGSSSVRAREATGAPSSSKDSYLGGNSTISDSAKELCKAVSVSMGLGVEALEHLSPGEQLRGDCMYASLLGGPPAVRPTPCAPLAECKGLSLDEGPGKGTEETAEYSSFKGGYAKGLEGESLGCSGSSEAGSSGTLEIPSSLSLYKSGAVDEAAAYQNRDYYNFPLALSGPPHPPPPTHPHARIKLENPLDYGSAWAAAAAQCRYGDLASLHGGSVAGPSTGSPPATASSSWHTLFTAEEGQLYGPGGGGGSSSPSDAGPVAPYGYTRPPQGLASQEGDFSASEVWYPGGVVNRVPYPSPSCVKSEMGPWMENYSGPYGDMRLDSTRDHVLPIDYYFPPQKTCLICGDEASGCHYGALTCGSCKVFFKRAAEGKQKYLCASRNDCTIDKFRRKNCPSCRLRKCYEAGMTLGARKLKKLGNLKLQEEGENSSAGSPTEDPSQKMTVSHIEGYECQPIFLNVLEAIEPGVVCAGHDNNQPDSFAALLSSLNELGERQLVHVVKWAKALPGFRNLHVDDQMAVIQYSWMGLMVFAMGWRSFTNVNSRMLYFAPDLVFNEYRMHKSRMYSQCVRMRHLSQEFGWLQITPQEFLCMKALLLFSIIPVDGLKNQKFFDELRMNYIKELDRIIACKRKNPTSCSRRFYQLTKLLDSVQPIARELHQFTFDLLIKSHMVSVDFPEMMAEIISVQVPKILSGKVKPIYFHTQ
Method: Two hours post‐transfection, the cells were plated in 96‐well plates at a density of 2 × 10^4 cells/well, and cultured at 37°C for 3 hours. […] Luciferase activity was measured using the Steady‐Glo Luciferase assay system (Promega) and an Envision Multimode Plate Reader (PerkinElmer).
In the reporter assays, EC50 was calculated using Graph Pad Prism version 6. The effects of SARM‐2f or TE on BW and LBM were analyzed by t test, with Bonferroni correction for repeated measurements.

[2] = set-up: method as in PMID 29344250; conditions: rats; cited from earlier work
[3] = set-up: method as in PMID 28454849; conditions: monkeys, cited from earlier work
[4] = Plasma lipid levels after 4-week treatment; type: in vivo, cynomolgus monkey; conditions: after 4 wks, SARM‐2f 1, 3, 10 mg/kg daily p.o., vs vehicle
Method: The monkeys were divided into five groups by weight randomization (MiTOX system ver2.0, Mitsui E & S Systems Research Inc) on the last day of the habituation period. SARM‐2f was orally administered at daily doses of 1, 3, or 10 mg/kg for 4 weeks between 9:00 and 11:00 hours, using 0.5% w/v methylcellulose as the vehicle. TE was injected intramuscularly on Day 0 and Day 13; the dosing start was set at Day 0 at a dose of 2 mg/kg using sesame oil as the vehicle. The route of administration and dose of TE was selected according to the route and dose mentioned in the clinical indications. BW was measured every week before dosing (between 8:30 and 9:00 hours), and LBM was measured every 2 weeks after dosing and before feeding (between 11:30 and 14:30 hours) using an X‐ray bone density measuring device (Discovery, HOLOGIC USA). Blood collection for lipid profiles was conducted on the day after the completion of the four‐week multiple administration of SARM‐2f or TE. Plasma levels of total cholesterol (T‐chol), HDL‐c, low‐density lipoprotein cholesterol (LDL‐c), triglyceride (TG), alanine aminotransferase (ALT), and […] (AST) were measured by an automatic JCA‐BM8 analysis system (JEOL Ltd.). Plasma lipoprotein (a) (Lp (a)) levels were measured using a multiplate absorbance measuring system (Multiscan Ascent, Thermo Fisher Scientific KK). […]

[5] = Pharmacokinetic study, oral single and 14-day dosing; type: in vivo, cynomolgus monkey
Method: Monkeys were orally treated with SARM‐2f (10 mg/kg) as a single dose or daily administration for 14 consecutive days; blood was collected from the femoral vein at 0.5, 1, 2, 4, 8, and 24 hours after the single dose and 14 doses (n = 2 each sex). The blood samples were centrifuged (4°C, 12 000 g, 1 minutes) to obtain plasma. Plasma concentrations of SARM‐2f were measured by liquid chromatography/tandem mass spectrometry.

[6] = test system: 126 biochemical activity assays (enzyme assays or radioligand binding assays); assay: 126 biochemical activity assays (enzyme assays or radioligand binding assays), MDS Pharma Service; conditions: at 10 µmol/L; Table S5 (picture, not readable)
Excerpt: Based on these findings, we believe that SARM‐2f has no severe off‐target effects.

[7] = set-up: method as in PMID 28454849; conditions: rats, cited from earlier work
[8] = intravenous administration at 0.1 mg/kg
[9] = single oral administration at 1 mg/kg
[10] = 10 mg/kg p.o., 1st (single) dose, total N = 4
[11] = 10 mg/kg p.o., 1st dose, female N = 2
[12] = 10 mg/kg p.o., 1st dose, male N = 2
[13] = 10 mg/kg/day p.o., 14th dose, female N = 2
[14] = 10 mg/kg/day p.o., 14th dose, male N = 2
[15] = 10 mg/kg/day p.o., 14th dose, total N = 4

CC[C@H]1[C@@H](O)CC(=O)N1c1ccc(C#N)c(C(F)(F)F)c1 [SARM‐2f, 4′‐[(2S,3S)‐2‐Ethyl‐3‐hydroxy‐5‐oxopyrrolidin‐1‐yl]‐2′‐(trifluoromethyl) benzonitrile]
EC50 ([1]; rat AR reporter assay (abstract), read-out: EC50): 2.5 nM
maximal activation ([1]; rat AR, at 1 μmol/L, 1 μmol/L DHT = 100%): 118%
dose sufficient to increase BW [2]: 0.3 mg/kg
Vdss [3, 8]: 1.409 L/kg
AUC 0‐24 h [3, 9]: 557.8 ng·h/mL
MRT (Mean Residence Time) [3]: 5.21 h
Blood level of HDL‐c ([4]; TE 2 mg/kg every 2 wks): only reduced in animals treated with 3 or 10 mg/kg
Blood level of LDL‐c ([4]; TE 2 mg/kg every 2 wks): lower
Blood level of TG ([4]; TE 2 mg/kg every 2 wks): lower
Blood level of T‐chol ([4]; TE 2 mg/kg every 2 wks): lower
Lp (a) protein level ([4]; TE 2 mg/kg every 2 wks): showed a tendency to be decreased
HDL‐c/LDL‐c ratio [4]: did not cause any significant change
AUC 0‐24 h [5, 10]: 8152 ± 945 ng·h/mL
C max [5, 10]: 3011 ± 718 ng/mL
T max [5, 10]: 1.0 ± 0.0 h
AUC 0‐24 h [5, 11]: 8116 ng·h/mL
C max [5, 11]: 3341 ng/mL
T max [5, 11]: 1.0 h
AUC 0‐24 h [5, 12]: 8188 ng·h/mL
C max [5, 12]: 2681 ng/mL
T max [5, 12]: 1.0 h
AUC 0‐24 h [5, 13]: 6043 ng·h/mL
C max [5, 13]: 2297 ng/mL
T max [5, 13]: 1 h
AUC 0‐24 h [5, 14]: 8620 ng·h/mL
C max [5, 14]: 3176 ng/mL
T max [5, 14]: 0.8 h
AUC 0‐24 h [5, 15]: 7331 ± 1618 ng·h/mL
C max [5, 15]: 2736 ± 525 ng/mL
T max [5, 15]: 0.9 ± 0.3 h
molecules affected in 126 biochemical activity assays [6]: the only molecule that SARM‐2f affected at 10 µmol/L was AR
Vdss [7, 8]: 2.167 L/kg
AUC 0‐24 h [7, 9]: 809.4 ng·h/mL
MRT (Mean Residence Time) [7]: 3.06 h
